Results taken from ChEMBL document CHEMBL3045012, “Quinoline-based azetidinone and thiazolidinone analogues as antimicrobial and antituberculosis agents” (2013).
Converted amounts (≈) assume the structure as drawn.

Legend:
Format in all cases: functional
[1] = system: Aspergillus niger; experiment: Antimicrobial activity against Aspergillus niger MTCC 282 assessed as diameter of growth inhibition zone after 24 hr by paper disk diffusion technique
[2] = system: Escherichia coli; experiment: Antimicrobial activity against Escherichia coli MTCC 739 assessed as growth inhibition after 24 hr by agar streak dilution technique; conditions: MTCC 739, 24 h
[3] = system: Candida albicans; experiment: Antimicrobial activity against Candida albicans MTCC 183 assessed as diameter of growth inhibition zone after 24 hr by paper disk diffusion technique
[4] = system: Staphylococcus aureus; experiment: Antimicrobial activity against Staphylococcus aureus MTCC 96 assessed as diameter of growth inhibition zone after 24 hr by paper disk diffusion technique
[5] = system: Bacillus subtilis; experiment: Antimicrobial activity against Bacillus subtilis MTCC 430 assessed as diameter of growth inhibition zone after 24 hr by paper disk diffusion technique
[6] = system: Pseudomonas aeruginosa; experiment: Antimicrobial activity against Pseudomonas aeruginosa MTCC 741 assessed as growth inhibition after 24 hr by agar streak dilution technique; conditions: MTCC 741, 24 h
[7] = system: Mycobacterium tuberculosis; experiment: Antituberculosis activity against Mycobacterium tuberculosis H37Rv assessed as growth inhibition after 12 to 28 days by L-J MIC method; conditions: for MIC: Mycobacterium tuberculosis, H37Rv
[8] = system: Pseudomonas aeruginosa; experiment: Antimicrobial activity against Pseudomonas aeruginosa MTCC 741 assessed as diameter of growth inhibition zone after 24 hr by paper disk diffusion technique
[9] = system: Bacillus subtilis; experiment: Antimicrobial activity against Bacillus subtilis MTCC 430 assessed as growth inhibition after 24 hr by agar streak dilution technique; conditions: MTCC 430, 24 h
[10] = system: Candida albicans; experiment: Antimicrobial activity against Candida albicans MTCC 183 assessed as growth inhibition after 48 hr by agar streak dilution technique; conditions: MTCC 183, 48 h
[11] = system: Staphylococcus aureus; experiment: Antimicrobial activity against Staphylococcus aureus MTCC 96 assessed as growth inhibition after 24 hr by agar streak dilution technique; conditions: MTCC 96, 24 h
[12] = system: Escherichia coli; experiment: Antimicrobial activity against Escherichia coli MTCC 739 assessed as diameter of growth inhibition zone after 24 hr by paper disk diffusion technique
[13] = system: Aspergillus niger; experiment: Antimicrobial activity against Aspergillus niger MTCC 282 assessed as growth inhibition after 48 hr by agar streak dilution technique; conditions: MTCC 282, 48 h

Row | SMILES | diameter of the inhibition zone (DIZ) [1] | MIC [2] | diameter of the inhibition zone (DIZ) [3] | diameter of the inhibition zone (DIZ) [4] | diameter of the inhibition zone (DIZ) [5] | MIC [6] | growth inhibition (GI) [7] | MIC [7] | diameter of the inhibition zone (DIZ) [8] | MIC [9] | MIC [10] | MIC [11] | diameter of the inhibition zone (DIZ) [12] | MIC [13]
1 | O=C1C(Cl)C(c2cc3ccccc3nc2Cl)N1c1ccccc1 (stereo unspecified) | <10 mm | 100 µg/mL (≈ 291 µM) | <10 mm | <10 mm | <10 mm | 100 µg/mL (≈ 291 µM) | 90% | 500 µg/mL (≈ 1460 µM) | <10 mm | 100 µg/mL (≈ 291 µM) | 100 µg/mL (≈ 291 µM) | 100 µg/mL (≈ 291 µM) | <10 mm | 100 µg/mL (≈ 291 µM)
2 | Cc1ccccc1N1C(=O)C(Cl)C1c1cc2ccccc2nc1Cl (stereo unspecified) | <10 mm | 100 µg/mL (≈ 280 µM) | <10 mm | 16 mm | <10 mm | 100 µg/mL (≈ 280 µM) | 91% | 1000 µg/mL (≈ 2800 µM) | <10 mm | 100 µg/mL (≈ 280 µM) | 100 µg/mL (≈ 280 µM) | 100 µg/mL (≈ 280 µM) | <10 mm | 100 µg/mL (≈ 280 µM)
3 | Cc1cccc(N2C(=O)C(Cl)C2c2cc3ccccc3nc2Cl)c1 (stereo unspecified) | 20 mm | 100 µg/mL (≈ 280 µM) | <10 mm | <10 mm | 18 mm | 100 µg/mL (≈ 280 µM) | 90% | 500 µg/mL (≈ 1400 µM) | 16 mm | 100 µg/mL (≈ 280 µM) | 100 µg/mL (≈ 280 µM) | 100 µg/mL (≈ 280 µM) | 14 mm | 100 µg/mL (≈ 280 µM)
4 | Cc1ccc(N2C(=O)C(Cl)C2c2cc3ccccc3nc2Cl)cc1 (stereo unspecified) | <10 mm | 100 µg/mL (≈ 280 µM) | 19 mm | 17 mm | 16 mm | 100 µg/mL (≈ 280 µM) | 94% | 200 µg/mL (≈ 560 µM) | 13 mm | 100 µg/mL (≈ 280 µM) | 100 µg/mL (≈ 280 µM) | 100 µg/mL (≈ 280 µM) | 15 mm | 100 µg/mL (≈ 280 µM)
5 | O=C1C(Cl)C(c2cc3ccccc3nc2Cl)N1c1ccccc1[N+](=O)[O-] (stereo unspecified) | 22 mm | 100 µg/mL (≈ 258 µM) | 20 mm | 20 mm | 21 mm | 62.5 µg/mL (≈ 161 µM) | 92% | 250 µg/mL (≈ 644 µM) | 21 mm | 62.5 µg/mL (≈ 161 µM) | 100 µg/mL (≈ 258 µM) | 100 µg/mL (≈ 258 µM) | 22 mm | 50 µg/mL (≈ 129 µM)
6 | O=C1C(Cl)C(c2cc3ccccc3nc2Cl)N1c1cccc([N+](=O)[O-])c1 (stereo unspecified) | 26 mm | 62.5 µg/mL (≈ 161 µM) | 19 mm | 25 mm | 21 mm | 50 µg/mL (≈ 129 µM) | 93% | 100 µg/mL (≈ 258 µM) | 22 mm | 50 µg/mL (≈ 129 µM) | 100 µg/mL (≈ 258 µM) | 25 µg/mL (≈ 64.4 µM) | 22 mm | 50 µg/mL (≈ 129 µM)
7 | O=C1C(Cl)C(c2cc3ccccc3nc2Cl)N1c1ccc([N+](=O)[O-])cc1 (stereo unspecified) | 24 mm | 100 µg/mL (≈ 258 µM) | 19 mm | 25 mm | 23 mm | 12.5 µg/mL (≈ 32.2 µM) | 96% | 50 µg/mL (≈ 129 µM) | 23 mm | 50 µg/mL (≈ 129 µM) | 100 µg/mL (≈ 258 µM) | 12.5 µg/mL (≈ 32.2 µM) | 20 mm | 50 µg/mL (≈ 129 µM)
8 | O=C1C(Cl)C(c2cc3ccccc3nc2Cl)N1c1ccccc1Cl (stereo unspecified) | 19 mm | 62.5 µg/mL (≈ 165 µM) | 18 mm | 24 mm | 24 mm | 50 µg/mL (≈ 132 µM) | 97% | 62.5 µg/mL (≈ 165 µM) | 20 mm | 12.5 µg/mL (≈ 33.1 µM) | 100 µg/mL (≈ 265 µM) | 62.5 µg/mL (≈ 165 µM) | 21 mm | 100 µg/mL (≈ 265 µM)
9 | O=C1C(Cl)C(c2cc3ccccc3nc2Cl)N1c1cccc(Cl)c1 (stereo unspecified) | 25 mm | 62.5 µg/mL (≈ 165 µM) | 20 mm | 25 mm | 23 mm | 25 µg/mL (≈ 66.2 µM) | 98% | 50 µg/mL (≈ 132 µM) | 22 mm | 12.5 µg/mL (≈ 33.1 µM) | 62.5 µg/mL (≈ 165 µM) | 25 µg/mL (≈ 66.2 µM) | 21 mm | 62.5 µg/mL (≈ 165 µM)
